What was measured:
DTX2 = target: T1, DTX2 (Homo sapiens, UniProt Q86UW9); experiment: In vitro ubiquitylation of NAD+ ([…]) by purified DTX2 and E2~Ub, silver-stained gel; format: biochemical
T1 construct: RING-DTC domain, residues 389–622; with UBE2D3~Ub conjugate

PARP10 = target: T2, PARP10 (Homo sapiens, UniProt Q53GL7); experiment: Dose-response inhibition of GFP-PARP10 auto-MARylation in HEK […] cells, western blot; format: cell-based
T2 construct: GFP-PARP10, doxycycline-inducible in HEK 293 cells
T2 sequence (Q53GL7 1-1025): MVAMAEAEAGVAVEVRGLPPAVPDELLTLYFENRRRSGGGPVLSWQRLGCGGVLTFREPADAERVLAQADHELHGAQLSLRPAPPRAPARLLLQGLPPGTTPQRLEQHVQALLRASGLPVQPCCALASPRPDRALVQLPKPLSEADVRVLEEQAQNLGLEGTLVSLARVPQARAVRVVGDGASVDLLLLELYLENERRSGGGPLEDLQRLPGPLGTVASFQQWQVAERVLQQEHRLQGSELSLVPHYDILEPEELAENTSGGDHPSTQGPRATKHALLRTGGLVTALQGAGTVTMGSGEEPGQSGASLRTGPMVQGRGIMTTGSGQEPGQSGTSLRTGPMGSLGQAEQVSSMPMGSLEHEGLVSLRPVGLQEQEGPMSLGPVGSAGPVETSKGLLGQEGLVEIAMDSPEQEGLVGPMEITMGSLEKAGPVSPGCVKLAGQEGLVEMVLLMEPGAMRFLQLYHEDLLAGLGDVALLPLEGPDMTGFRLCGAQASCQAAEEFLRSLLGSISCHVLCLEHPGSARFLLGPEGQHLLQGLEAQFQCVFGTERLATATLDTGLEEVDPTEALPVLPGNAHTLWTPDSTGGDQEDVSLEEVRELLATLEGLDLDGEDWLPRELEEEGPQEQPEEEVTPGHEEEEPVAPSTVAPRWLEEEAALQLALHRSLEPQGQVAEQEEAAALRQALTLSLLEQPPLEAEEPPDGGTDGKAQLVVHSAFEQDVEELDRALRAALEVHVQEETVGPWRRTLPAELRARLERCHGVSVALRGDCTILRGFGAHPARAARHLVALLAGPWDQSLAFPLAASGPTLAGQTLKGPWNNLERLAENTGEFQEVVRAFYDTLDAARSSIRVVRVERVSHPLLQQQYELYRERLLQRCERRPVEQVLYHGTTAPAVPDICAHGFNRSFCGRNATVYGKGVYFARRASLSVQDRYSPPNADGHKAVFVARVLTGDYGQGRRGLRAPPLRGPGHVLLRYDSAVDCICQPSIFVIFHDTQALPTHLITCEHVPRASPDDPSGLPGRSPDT

T1 sequence (Q86UW9 389-622): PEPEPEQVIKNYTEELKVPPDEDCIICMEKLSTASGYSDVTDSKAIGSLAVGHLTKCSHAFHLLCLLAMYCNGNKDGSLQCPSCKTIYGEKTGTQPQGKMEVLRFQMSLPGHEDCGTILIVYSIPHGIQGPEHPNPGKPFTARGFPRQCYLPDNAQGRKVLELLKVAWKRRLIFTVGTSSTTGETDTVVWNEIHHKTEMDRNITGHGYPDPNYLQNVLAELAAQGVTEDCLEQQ
T1 sequence (P61077 whole entry partner, the tested form may be a part): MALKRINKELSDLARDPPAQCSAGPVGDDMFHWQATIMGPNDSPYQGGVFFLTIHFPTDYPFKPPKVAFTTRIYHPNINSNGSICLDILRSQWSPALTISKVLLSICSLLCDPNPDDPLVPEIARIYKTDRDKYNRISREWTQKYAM

Row | IC50 (PARP10) | Compound | In vitro ubiquitylation of NAD+ (0.2 mM) by purified DTX2 and E2~Ub, silver-stai (DTX2)
1 | – | NC(=O)c1ccc[n+]([C@@H]2O[C@H](COP(=O)([O-])OP(=O)(O)OC[C@H]3O[C@@H](n4cnc5c(N)ncnc54)[C@H](O)[C@@H]3O)[C@@H](O)[C@H]2O)c1 [NAD^+] | DTX2 could readily conjugate Ub to NAD^+ and ADPr to form Ub ester-linked NAD^+ (NAD^+-Ube)
2 | 51.4 nM | RBN010860 | –

Source: article PMC12000418, “Ubiquitin is directly linked via an ester to protein-conjugated mono-ADP-ribose” (The EMBO Journal, 2025)
